Article PMC6330446, “An integrated characterization of contractile, electrophysiological, and structural cardiotoxicity of Sophora tonkinensis Gapnep. in human pluripotent stem cell-derived cardiomyocytes” (Stem Cell Research & Therapy, 2019)
Entries after “also recorded” stand apart in the source; their conditions may differ.

Assays:
[1] = tested on: hiPSC-CMs; conditions: hiPSC-CMs; alkaloids 2, 10, 50 μM, aconitine 1 μM; 24 h
Procedure: (§1) After plating for about 3 days, CMs matured and began to beat. At this time, different compounds were added, and experiments were performed 24 h after treatment. The experiments were grouped as follows: control group (normal medium); matrine, oxymatrine, sophocarpine, and cytisine treatment (2, 10, 50 μM) groups; and aconitine treatment (1 μM) group. The doses of toxicity studies above were determined by the effective therapeutic doses reported and included or exceeded the therapeutic dose.
CMs were incubated in 10% CCK-8 (Dojindo, Kumamoto, Japan) that was diluted in normal culture medium at 37 °C until a visual color conversion occurred. The absorbance of each well was measured using a microplate reader (Spectrafluor, TECAN, Sunrise, Austria) at 450 nm. Three individual experiments were performed. All samples were operated in duplicate.
A 96-well plate was used to seed hiPSC-CMs at a concentration of 5 × 10^4 cells per well. The cultured cells were treated with different concentrations of compounds and were incubated for another 48 h. CMs were digested with trypsin, and a small amount of cell suspension was added into the same amount of trypan blue solution. Countstar Automated Cell Counter IC1000 (Elite Life Sciences, Shanghai, China) was used to count the number of total and living cells. Data were presented as the mean ± SEM, n ≥ 3.

[2] = tested on: hiPSC-CMs; conditions: hiPSC-CMs; alkaloids 2, 10, 50 μM, aconitine 1 μM
Procedure: as §1
Cell treatment method was the same as above. After reaching the predetermined time, 120 μl of the supernatant of each well was taken for measuring LDH leakage using a commercially available kit (Beyotime Biotechnology, Shanghai, China) following the manufacturer’s instructions. Data were presented as the mean ± SEM, n ≥ 3.

[3] = tested on: hiPSC-CMs; test: CK-MB and cardiac troponin I ELISA assay; type: cell-based, human; conditions: alkaloids 2, 10, 50 μM, aconitine 1 μM
Procedure: as §1
Cell treatment method was the same as above. After the administration, the cells were digested and then destroyed by repeated freeze-thaw and sonication to release the components in the cells. Centrifuged at 2500 rpm for 20 min, the supernatant was collected for the detection of creatine kinase MB isoenzyme (CK-MB) and cardiac troponin I (CTn-I) ELISA kit (Expandbiotech, Beijing, China) following the manufacturer’s instructions. Data were presented as the mean ± SEM, n ≥ 3.

[4] = tested on: hiPSC-CMs; type: cell-based, human; conditions: hiPSC-CMs; high dose of alkaloids (50 μM), aconitine 1 μM
Procedure: Cells were incubated in a maintaining medium containing 10 μM DCFH-DA (Beyotime Biotechnology, Shanghai, China) for 30 min at 37 °C in the dark. The measurement of ROS was performed with IncuCyte™ S3 ZOOM cell imaging system (Essen BioScience, Ann Arbor, MI). TissueQuest 6.0 was used for the quantitative analysis of ROS formation. Data were presented as the mean ± SEM, n ≥ 3.

[5] = tested on: GCaMP hESC-CMs; type: cell-based, human; conditions: GCaMP hESC-CMs; high dose of alkaloids (50 μM), aconitine 1 μM
Procedure: The hESC-CMs in this experiment can express the GCaMP reporter gene by gene editing, and green fluorescence marker can be observed by a fluorescence microscope. The fluorescence intensity is proportional to Ca^2+ concentration. The CMs were seeded into 96-well plates at 5000/well and were administered the same as above. The fluorescence intensities of hESC-CMs were monitored using an IncuCyte™ S3 ZOOM cell imaging system (Essen BioScience, Ann Arbor, MI). Data were presented as the mean ± SEM, n ≥ 3.

[6] = tested on: hiPSC-CMs; test: TUNEL staining (apoptosis); type: cell-based, human; conditions: high dose of alkaloids, aconitine
Procedure: Supplementary file 13287_2018_1126_MOESM1_ESM.tif: Additional file 1: Figure S1. Effect of matrine, oxymatrine, cytisine, and sophocarpine on TUNEL staining in hiPSC-CMs. After treatment with matrine, oxymatrine, cytisine, and sophocarpine, the images of TUNEL fluorescence and bright field were acquired intuitively using IncuCyte™ S3 ZOOM cell imaging system and the fluorescence intensity was analyzed quantitatively using TissueQuest 6.0. […] The scale bar is 400 μm. Data are presented as the mean ± SEM, n ≥ 3. […] vs the control group. (TIF 23588 kb)

## CCN1C[C@]2(COC)[C@H](O)C[C@H](OC)[C@@]34[C@@H]5C[C@@]6(O)[C@H](OC(=O)c7ccccc7)[C@@H]5[C@@](OC(C)=O)([C@@H]([C@H](OC)[C@H]23)[C@@H]14)[C@@H](O)[C@@H]6OC [aconitine, reference compound]
[1]
  Cell viability (in words): showed a great significance
[2]
  LDH level in the supernatant (in words): induced a large amount; also recorded: increased immensely
[3]
  CK-MB level (in words): induced a large amount; also recorded: increased immensely
  CTnI level (in words): induced a large amount
[4]
  ROS fluorescence / ROS production (in words): induced excessive ROS production
[5]
  Fluorescence intensity of calcium, [Ca^2+]i (in words): increased drastically
[6]
  TUNEL fluorescence staining (in words): huge increase
